According to patent US20120207722A1, “Use Of Adipose Tissue Cells For Initiating The Formation Of A Functional Vascular Network” (CENTRE NATIONAL DE LA RECHERCHE SCIENTIFIQUE, priority 2003, published 2012):

System: hind limb rendered ischemic
Assay: Hind limb ischemia model, SVF-CULT cells with modified redox state (antimycin and/or PDTC)
Type: in vivo, mouse
Conditions: daily i.p. injection (50 μl at 40 nM) after the injection of the SVF-CULT cells
Protocol: The angiogenic potential of the SVF-CULT cells treated, in vitro, with antimycin (40 nM) and/or pyrrolidine dithiocarbamate (PDTC; 0.5 mM) two days before the injection, was analyzed in the model of the mouse with a hind limb rendered ischemic, as described in Example 1. Furthermore, after the injection of the SVF-CULT cells treated with antimycin alone, by adding antimycin to the culture medium, or not treated, the mice were or were not given a daily i.p. injection of antimycin (50 μl at 40 nM). The mice treated similarly with PDTC alone or in combination with antimycin receive no treatment after the injection of cells.
The angiogenic potential of the nontreated SVF-CULT cells, in mice not treated after the injection of the cells, was analyzed in parallel, by way of comparison. The control group was given an injection of ethanol, under the same conditions.
The neovascularization process was analyzed by microangiography and, optionally, by laser Doppler, 8 days after femoral occlusion. The statistical analysis was carried out by means of an ANOVA-type variance test for comparing each parameter (n=5 for each group). A Bonferroni t test subsequently made it possible to identify the groups causing these differences. A value of P<0.05 is considered to be significant.

Substance: antimycin
- effect on revascularization when administered directly to the animal: no effect
